Results reported in the OligoGym collection.
Bases are written 5' to 3'; sugars and linkages follow in the same order, as letters with counts (s phosphorothioate, o phosphodiester; PS: all linkages phosphorothioate). The collection does not say whether C is 5-methylated. l = locked nucleic acid (LNA); d = 2'-deoxy (DNA)

The sequences below were run against Tau (assay: rat primary cortical neurons, FLIPR, 25 uM ASO).

In order of rising calcium oscillation score:
1. TTGGCGTTCTCGCGGA (sugars l3 d10 l3, PS)  0 % of control
2. GGATGTTGCCTAATGA (sugars l3 d10 l3, PS)  0 % of control
3. GAGTTTGTGCAAGGTC (sugars l3 d10 l3, PS)  0 % of control
4. GACTTGGGTGGAGTACGGAC (sugars l3 d14 l3, PS)  0 % of control
5. TTTATAGGTGCATAGT (sugars l2 d10 l4, PS)  0 % of control
6. GTGATATTGTCCAGGGACCC (sugars l3 d14 l3, PS)  0 % of control
7. CGTGGTCTGTCTTG (sugars l3 d8 l3, PS)  0 % of control
8. AAGTCCCGAGCCAAAGCCGA (sugars l3 d14 l3, PS)  0 % of control
9. GACTTGGGTGGAGTAC (sugars l3 d10 l3, PS)  0 % of control
10. TTGAAGTCAAGCTTCTCAGA (sugars l3 d14 l3, PS)  0 % of control
11. AGCTTGTGGGTTTCAATCTT (sugars l3 d14 l3, PS)  0 % of control
12. ACTGGTTTGTAGACTATTTG (sugars l3 d14 l3, PS)  0 % of control
13. GATGTTGCCTAATGAG (sugars l3 d10 l3, PS)  0 % of control
14. TTCAGGTCTGGCATGG (sugars l3 d10 l3, PS)  1.9 % of control
15. TCCTGGTTTATGATGG (sugars l3 d10 l3, PS)  2.3 % of control
16. TTGTCCAGGGACCCAATCTT (sugars l3 d14 l3, PS)  3.32 % of control
17. TGATACCCTTCCTCAG (sugars l2 d12 l2, PS)  4.76 % of control
18. TGAACAGGAGAGCCATTTCC (sugars l3 d14 l3, PS)  7.14 % of control
19. ATCAATTTGGAAAGATGAAA (sugars l3 d14 l3, PS)  10.4 % of control
20. GTAGACTATTTGCACACTGC (sugars l3 d14 l3, PS)  11.1 % of control
21. GCACCAGGAACCTTCCAGAA (sugars l3 d14 l3, PS)  12.8 % of control
22. GTGATGCAGGAGTTGT (sugars l3 d10 l3, PS)  13.5 % of control
23. ACTTTATTTCCAAATTCACTTTTAC (sugars llldddddddddddddddddldldl, PS)  17.7 % of control
24. CAATTCTCAGCACACCA (sugars l4 d11 l2, PS)  22.5 % of control
25. ATTAATTATCTGCACCT (sugars l4 d10 l3, PS)  24.7 % of control
26. TTAGCAGAGGAACGTG (sugars l3 d10 l3, PS)  25.9 % of control
27. TCACAAACCCTGCTTGGCCA (sugars l3 d14 l3, PS)  27.6 % of control
28. GTCAGCTAGCGTGGCG (sugars l3 d10 l3, PS)  27.6 % of control
29. TGTGATGCAGGAGTTG (sugars l3 d10 l3, PS)  28.7 % of control
30. CTCTTCCACTACAAGCTC (sugars l3 d13 l2, PS)  28.9 % of control
31. CCATTATCTCACTGCTT (sugars l3 d12 l2, PS)  29.3 % of control
32. TGCTCAGCTAAGACCCTCAG (sugars l3 d14 l3, PS)  29.4 % of control
33. CGTCTTTGCTTTTACTGACC (sugars l3 d14 l3, PS)  29.6 % of control
34. CATGTCGATGCTGC (sugars l3 d8 l3, PS)  30.5 % of control
35. TGTAGACTATTTGC (sugars l3 d8 l3, PS)  30.9 % of control
36. CTCCTGGTTTATGATG (sugars l3 d10 l3, PS)  31.3 % of control
37. ATGTTGCCTAATGAGCCACA (sugars l3 d14 l3, PS)  31.6 % of control
38. CTGGTTTATGATGG (sugars l3 d8 l3, PS)  32.6 % of control
39. TGTCGATGCTGCCGGT (sugars l3 d10 l3, PS)  34.5 % of control
40. CCAGCAGCTTCGTCTTCCAG (sugars l3 d14 l3, PS)  36.1 % of control
41. AGTCCCGAGCCAAAG (sugars l3 d9 l3, PS)  36.6 % of control
42. ACTCTTTGAACACCCCAT (sugars l4 d12 l2, PS)  38.3 % of control
43. AGCCACTGTTGCCACA (sugars l2 d12 l2, PS)  39.3 % of control
44. TGTCCTCACTTTACACAT (sugars l4 d12 l2, PS)  39.8 % of control
45. ACTCTTAGCATCCACTT (sugars l4 d11 l2, PS)  40.6 % of control
46. AGTCAAGCATCACGTT (sugars l3 d10 l3, PS)  42.2 % of control
47. ACAGGAGAGCCATTTCCCAA (sugars l3 d14 l3, PS)  42.9 % of control
48. CATTATTCTTTTTTTTTCCA (sugars l4 d14 l2, PS)  43.3 % of control
49. GGCGAGTCTACCATGT (sugars l3 d10 l3, PS)  43.4 % of control
50. TCTTCCATCACTTCGAACTC (sugars l3 d14 l3, PS)  45.2 % of control
51. CCCCACCCAAACTCCAAG (sugars l1 d15 l2, PS)  46.2 % of control
52. CCCTTCAACATCAGCCA (sugars l2 d13 l2, PS)  47.6 % of control
53. ATCTCAAGTCTTATTCT (sugars l4 d9 l4, PS)  48.8 % of control
54. GGCGGCGCAGGCGCGA (sugars l3 d10 l3, PS)  49.6 % of control
55. AGTTCCCACAATTCCTAC (sugars l2 d13 l3, PS)  50.4 % of control
56. CCCACATTTGCAAACCAC (sugars l2 d14 l2, PS)  50.5 % of control
57. GGAGGCAGACACCTCGTCAG (sugars l3 d14 l3, PS)  51.8 % of control
58. CCCGAGCCAAAGCC (sugars l3 d8 l3, PS)  52.2 % of control
59. CCATCAGTCTTATCTCC (sugars l1 d14 l2, PS)  52.9 % of control
60. CACCCTTACACATAGCT (sugars l3 d12 l2, PS)  55.6 % of control
61. TCTTCCACTACAAGCTCC (sugars l2 d14 l2, PS)  55.8 % of control
62. TTTTTATTCATAACTTTTCA (sugars l4 d12 l4, PS)  56.4 % of control
63. TCCTAATTCCCAAATTCCT (sugars l2 d15 l2, PS)  57.4 % of control
64. CAGCTCTTCCATAAGCAGGG (sugars l3 d14 l3, PS)  60.6 % of control
65. CACCCACTTTCCTAATTCC (sugars l1 d16 l2, PS)  60.9 % of control
66. TCCATTCCCTCCAGAACCAT (sugars l3 d14 l3, PS)  61.9 % of control
67. TTAACTCAAATCAATTCTCA (sugars l4 d12 l4, PS)  62 % of control
68. TCTTAGTCATCTTCCCT (sugars l3 d12 l2, PS)  68.6 % of control
69. CTTCTATTACTTGCAAT (sugars l4 d9 l4, PS)  69 % of control
70. ACCACACACTCTGATAC (sugars l4 d11 l2, PS)  69 % of control
71. GAAATCCCTCTACTCC (sugars l2 d11 l3, PS)  70.7 % of control
72. TTCACACAACAAACTATTAT (sugars l4 d12 l4, PS)  70.7 % of control
73. CAACAATCCAACCACTAA (sugars l4 d10 l4, PS)  74.1 % of control
74. ATTCACACAACAAACTATT (sugars l4 d11 l4, PS)  74.5 % of control
75. TTGGCTTTGGCGTTCT (sugars l3 d10 l3, PS)  74.5 % of control
76. GTCCAAACTTTTACTCT (sugars l4 d11 l2, PS)  75.7 % of control
77. CCCTCACTTTTTATTCAAC (sugars l2 d14 l3, PS)  76 % of control
78. TCACACACATGATTATC (sugars l4 d9 l4, PS)  78.5 % of control
79. GTCTTCACATCCCAACT (sugars l4 d11 l2, PS)  82.1 % of control
80. CCCAGACCATCAATTTC (sugars l2 d12 l3, PS)  82.2 % of control
81. ACTCAACATTACCCTTAAA (sugars l4 d11 l4, PS)  82.4 % of control
82. AAAACATTCTCACCAAACCC (sugars l4 d14 l2, PS)  83.5 % of control
83. CTTATTGCTTTCCAATTC (sugars l2 d12 l4, PS)  83.6 % of control
84. CTCAGGTCAACTGGTT (sugars l3 d10 l3, PS)  83.8 % of control
85. ACAAACCAACTCAACATTAC (sugars l4 d12 l4, PS)  84.6 % of control
86. CTCATTGCAACTTTAAC (sugars l4 d9 l4, PS)  84.9 % of control
87. GAACTGCGAGGAGCAG (sugars l3 d10 l3, PS)  85.2 % of control
88. CCATTTTCACTGTTCACA (sugars l2 d14 l2, PS)  86.3 % of control
89. GCAAACCACTCTTATTC (sugars l4 d10 l3, PS)  86.8 % of control
90. CCCCTCCATTAAGAACCT (sugars l1 d15 l2, PS)  88.6 % of control
91. TCCAGCTACTTACCCAA (sugars l2 d12 l3, PS)  89 % of control
92. TCTCAAAAATCAACGCC (sugars l4 d10 l3, PS)  94.5 % of control
93. CACATGCTCACACACCAC (sugars l2 d13 l3, PS)  97.5 % of control
94. CTAAGCACTTTACCCATC (sugars l3 d13 l2, PS)  97.6 % of control
95. CCAGCGTGATCTTCCA (sugars l3 d10 l3, PS)  98 % of control
96. TTTTCAAACACACCTTCATT (sugars l2 d14 l4, PS)  98.6 % of control
97. ACTTGTACACGATCTCCGCC (sugars l3 d14 l3, PS)  103 % of control
98. CCCAGCGTGATCTTCCATCA (sugars l4 d11 l5, PS)  104 % of control
99. TTATTTCCAAATTCACTTTT (sugars lllddldddddddddldlll, PS)  108 % of control
100. CTTTATTTCCAAATTCACTT (sugars l2 d2 l1 d12 l3, PS)  108 % of control
101. CTTTATTTCCAAATTCACTT (sugars l2 d1 l2 d12 l3, PS)  112 % of control
102. ATTTCCAAATTCACTTTTAC (sugars llddlldddddddddldlll, PS)  112 % of control
103. CCTTTGAAAGTCCTTT (sugars l3 d11 l2, PS)  121 % of control
104. ATTTCCAAATTCACTTTTAC (sugars llldldddddddddldldll, PS)  123 % of control
105. GCTAAGGCAAGGCCTA (sugars l3 d10 l3, PS)  129 % of control
106. CTTTATTTCCAAATTCACTT (sugars ldlllddddddddddlldll, PS)  134 % of control
107. TCGCTTCCAGTCCC (sugars l3 d8 l3, PS)  142 % of control
108. AAAGATGAAATTTGCTCTTA (sugars l3 d14 l3, PS)  145 % of control
